How the values were obtained:
mouse lymph node cells = experiment: Aggregate formation of Con A-stimulated lymph node cells; assay type: cell-based; conditions: 2 μg/ml Con A plus 10 μM lactacystin; 24 h
Description: Cell-cell interaction is essential in antigen presentation and in T cell's help to T and B cells. The adhesion molecules are necessary to establish the cell-cell interaction. Blocking the adhesion molecules ICAM-1 and LFA-1 is known to inhibit immune responses and to suppress graft rejection. […] Therefore, inhibition of the proteasome activity will be a useful way to control undesirable immune responses during graft rejection, autoimmune diseases, and inflammation.

20S proteasome = 20S proteasome (Rattus norvegicus, UniProt P28075); experiment: 20S proteasome chymotrypsin-like activity, positive control for LAC; assay type: biochemical
Method: Human PBMC were cultured in the absence or presence of 2 μg/ml PHA or 10 nM RAPA for 16 h-70 h as indicated. The cells were then harvested, and the chymotrypsin-like activity of whole cells lysates was assayed in the absence or presence of 20 μM proteasome inhibitor LAC. The data are presented as arbitrary units of fluorescence intensity per 20 μg lysate protein. The experiments were repeated three times and a representative one is shown. Samples are in duplicate and the mean±SD is shown. (A) Total chymotrypsin-like activity in the lysate of PBMC. (B) Lactacystin-inhibitable chymotrypsin-like activity in the lysate of 70 h PBMC. […] LAC was always added to the lysates during the proteinase assay 15 min before the addition of the substrate. The solid bars represent the activity in the presence of LAC. The net proteasome activities are calculated as the total activity minus the remaining activity after the LAC addition.
PBMC were cultured with or without PHA (2 μg/ml) and RAPA (10 nM). After 16 h-70 h, the cells were harvested and sonicated in 300 μl PBS on ice for 40 sec. Twenty micrograms of protein per sample from the cleared lysates were supplemented to 100 μl with 0.1 M Tris buffer (pH 8.2). […] The samples were then diluted to 2 ml with 0.1 M Tris pH8.2, and measured for their fluorescent intensity by a PTI fluorometer (Photo Technology International, South Brunswick, N.J.). […]

CDK2 = experiment: Immunoprecipitation kinase assay, CDK2; assay type: cell-based, human; conditions: PHA-activated T cells; LAC 10 μM added once at 0 h; at 16 h and more so at 40 h
Method: Tonsillar T cells were activated with PHA (2 μg/ml) for a period as indicated in each graph. LAC (10 μM) was added once at 0 h. The cells were harvested at 16 h, 24 h, or 40 h as indicated. An equal amount of lysate protein ([…]) was precipitated with rabbit anti-CDK4, anti-CDK2 or anti-Cyclin E antisera (2.5 μg Ab/sample). The immune complexes were assayed for their kinase activities using histone H1 as a substrate. (A) CDK4 kinase activity. (B) CDK2 kinase activity. (C) Cyclin E-associated CDK activity. The membrane in (C) was subsequently hybridized with anti-Cyclin E (1 μg/ml) followed by ^125I-protein A for the evaluation of the protein level of Cyclin E.
Therefore, the proteasome activity during the early activation stage (0 h-16 h) is essential for the activation of the kinase at the G1 phase and early S phase. The unchanged CDK4 activity in the LAC-treated cells at 40 h served as an internal control for the repressed CDK2 activity and indicating the latter was not due to the viability problem.
Lymphocytes were lysed by a lysis buffer as used in the immunoblotting (Chen et al., 1996, supra), and cleared lysates were quantitated for their protein content. […] The proteins were then transferred to PVDF membranes and the signals were detected by autoradiography.

Tonsillar T cells = experiment: T cell viability by trypan blue exclusion; assay type: cell-based, human; conditions: for decrease of viability compared with cells without LAC: 10 μM LAC, medium or PHA
Method: Tonsillar T cells (A, B, and D) and Jurkat cells (C and E) were treated with LAC (10 μM for T cells and 6 μM for Jurkat cells). LAC was added at the beginning of the culture or 40 h after T cell activation as indicated. The cells were harvested at the time points as shown. They were evaluated for their viability with trypan blue exclusion (A, B, and C), and for their mode of cell death according to DNA fragmentation (D and E).
The viability of T cells and Jurkat cells after LAC-treatment was first evaluated with trypan blue exclusion. Resting T cells (T cells in medium) or PHA-stimulated T cells were cultured with 10 μM LAC (LAC added at the beginning of the culture).
There was a tendency that the activated T cells were more susceptible to LAC than the resting T cells. This became more evident when LAC was added to T cells 40 h after the PHA activation (FIG. 2B). […] On the other hand, the viability of the resting T cells in medium had only a small decrease (from 98% of the control to 87% of the LAC-treated) after 24 h of LAC presence.

CD25 = CD25 (IL-2Rα) upregulation by two-color flow cytometry; assay type: cell-based, human; conditions: PHA; LAC 10 μM added in the beginning of the culture
Method: CD25 expression on T cells was evaluated by anti-CD25-PE/anti-CD3-FITC two-color flow cytometry. Similar results were obtained in two independent experiments, and a representative one is shown. The data are presented as two color histograms in forms of contours, as well as in an overlay histogram.
In the four systems of T and B cell activation and proliferation studied in the first section, the growth promoting activity of IL-2 is indirectly (for stimulation by PHA, anti-CD3, and anti-CD28 plus ionomycin), or directly (for SAC plus IL-2) involved. We then investigated the role of proteasome in IL-2Rα expression and IL-2 production. […] Under the experimental condition used, the viability of the LAC-treated cell was reasonable (>80% at 40 h) as described in the previous section as LAC was added only once initially. Moreover, no consistent change of IL-2 production in LAC-treated cells was a functional indication that the cell viability was reasonable and is not of a concern in interpreting the data. The results from this section indicate that IL-2Rα upregulation but not IL-2 production is proteasome-dependent, and the suppressed IL-2Rα expression likely contributes to LAC's inhibitory effect on T cells activation and proliferation. The Proteasome Activity is Critically Required Between G0 and G1/S Boundary in T Cells […]

Bcl-xL = experiment: Immunoblotting of Bcl-xL in Bcl-xL transfected Namalwa cells; assay type: cell-based, human; conditions: lactacystin 6 μM; 6 h
Method: Jurkat cells, wild type Namalwa cells and Bcl-xL transfected Namalwa cells were treated with medium (lanes 1), staurosporine (0.3 μM, lanes 2) and lactacystin (6 μM, lanes 3) for 6 H. The proteins from the mitochondrial fraction of these cells were analyzed by immunoblotting and the amount of Bik, Bcl-xL, Bax, and Bak evaluated. The same membranes were used sequentially and probed with different antibodies against these factors. A nonspecific band recognized by a monoclonal antibody against cytochrome […] (COX) was used as control for even sample loading in the lanes.

inhibition at 10 µM (20S proteasome; LAC at 10 μM): 90%
CDK2 kinase activity (CDK2): significantly inhibited
Structure (SMILES): CC(=O)N[C@@H](CSC(=O)[C@]1([C@@H](O)C(C)C)NC(=O)[C@H](C)[C@@H]1O)C(=O)O [LAC, lactacystin]
aggregate formation (mouse lymph node cells): effectively block the aggregate formation
inhibitory effect on the 20S proteasome activity (20S proteasome; LAC increased to 20 μM): did not further increase the inhibitory effect
decrease of viability compared with cells without LAC (Tonsillar T cells; 16 h culture): < 12%
decrease of viability compared with cells without LAC (Tonsillar T cells; 64 h culture): less than 27%
viability (trypan blue exclusion) (Tonsillar T cells; PHA-stimulated T cells, 10 μM LAC added at beginning, 16 h): 83%
viability (trypan blue exclusion) (Tonsillar T cells; PHA-stimulated T cells, 10 μM LAC added at beginning, 64 h): 63%
viability of the LAC-treated cell (Tonsillar T cells; PHA, LAC 10 μM added once initially, at 40 h): > 80%
viability of the treated cells (Tonsillar T cells; PHA, LAC added once at the beginning, at 16 h): 83
change of viability (trypan blue exclusion) (Tonsillar T cells; activated T cells, LAC added 40 h after PHA, 9 h culture): did not change the viability significantly
viability (trypan blue exclusion) (Tonsillar T cells; activated T cells, LAC added 40 h after PHA, additional 24 h culture): 46%
viability (trypan blue exclusion) (Tonsillar T cells; resting T cells in medium, 10 μM LAC added at beginning, 16 h): 92%
viability (trypan blue exclusion) (Tonsillar T cells; resting T cells in medium, 10 μM LAC added at beginning, 64 h): 79%
viability (trypan blue exclusion) (Tonsillar T cells; resting T cells in medium, 24 h of LAC presence): 87%
CD25 upregulation in CD3+ T cells (CD25): significantly inhibited
Bcl-xL level in transfected Namalwa cells (Bcl-xL): accumulation of Bcl-xL
